Measurements: US20090202481A1, “Composition for Sustained Release Delivery of Proteins or Peptides” (priority 2008, published 2009)

What was measured:
Format in all cases: physicochemical
[1] = Purity of the octreotide in formulations at room temperature over time (HPLC); conditions: SAIB/NMP formulation
Method: (§1) Octreotide acetate (OCT-Ac) and octreotide conjugate (PAL-PEG-BA-OCT) powders were dissolved in NMP. Then the solutions containing various forms of octreotide were thoroughly mixed with SAIB solution in NMP (90% w/w).
(§2) The formulations as prepared above were allowed to stand at room temperature (˜22° C.). At predefined time points, the appearance of the formulations was recorded and an aliquot of each of both the supernatant and bottom composition was collected and analyzed by HPLC for octreotide content. The physical stability of the formulations was determined by direct observation or using the ratio of the content of the octreotide in the supernatant to that in the bottom composition. If the ratio equals to 1.0, the formulation is uniform and stable.

[2] = In vitro release of octreotide from SAIB/NMP formulations into PBS 7.4 at 37° C.; conditions: PBS 7.4, 37° C., SAIB/NMP formulation
Method: Formulations were prepared by mixing octreotide acetate (OCT-Ac) and octreotide conjugate (PAL-PEG-BA-OCT) powders with SAIB solution in NMP (90% w/w).
Due to the physical instability of the formulation containing OCT-Ac, the in vitro release was investigated immediately after the preparation of the formulations. An aliquot of the suspension was used for the in vitro release. About 0.1 mL of each formulation containing octreotide was injected into 3 mL of releasing buffer (PBS 7.4, containing 0.1% sodium azide) in a 4 mL glass vial. The vials were incubated at 37° C. and sampled at various time points. At each time point, 2 mL of release medium was removed and 2 mL of fresh release medium added. The collected samples were analyzed for peptide concentration and integrity by HPLC using an YMC-Pack ODS-120A column. Triplicate samples were used for each formulation.

[3] = Physical stability (phase separation, top/bottom ratio) of SAIB/NMP formulations standing at room temperature
Method: as §1, §2

C[C@@H](O)[C@@H]1NC(=O)[C@H](CCCCN)NC(=O)[C@@H](Cc2c[nH]c3ccccc23)NC(=O)[C@H](Cc2ccccc2)NC(=O)[C@@H](NC(=O)[C@H](N)Cc2ccccc2)CSSC[C@@H](C(=O)N[C@H](CO)[C@@H](C)O)NC1=O [OCT-Ac, Octreotide acetate]
Octreotide degraded in the bottom phase ([1]; after 7 days): more than 20%
Octreotide degraded in the supernatant ([1]; after 7 days): More than half
Octreotide degraded or reacted ([1]; after two hours): about 4%
Initial burst release (FIG. 2) [2]: very high initial burst release
Octreotide released ([2]; after two weeks): more than 90%
Octreotide released ([2]; within 24 hours): More than 60%
Appearance when combined with SAIB/NMP solution ([3]; on mixing, about 6% octreotide content): phase separation occurred immediately
NMP in the bottom phase ([3]; room temperature, SAIB/NMP formulation): slightly more NMP
OCT ratio top/bottom ([3]; room temperature, after 5 days): less than 0.03
Concentration of the octreotide in the bottom phase relative to the upper phase ([3]; room temperature, after two days): about 20 folds
Phase separation of formulation (FIG. 1) ([3]; stood at room temperature for 24 h): apparent phase separation occurred
